Assay results from ChEMBL document CHEMBL3871290, “3-Cyano-6-(5-methyl-3-pyrazoloamino) pyridines (Part 2): A dual inhibitor of Aurora kinase and tubulin polymerization” (Bioorg Med Chem Lett, 2016).
Blank lines part the entries; values can stand above or below the molecule they belong to. The source made the active and inactive calls. The calls are words filed in the database; no cut-off is given here.

Assays:
[1] = system: Cc1ccc(OCCNc2nc(Nc3cc(C)[nH]n3)cc(C)c2C#N)cn1; conditions: Homo sapiens
Description: Activity at cSRC (unknown origin)

[2] = system: Cc1ccc(OCCNc2nc(Nc3cc(C)[nH]n3)cc(C)c2C#N)cn1; conditions: Homo sapiens; remark: listed apart in the source
Description: Activity at YES (unknown origin)

HCT-116 [3] = assay: Antitumor activity against human HCT116 cells xenografted subcutaneously in mouse assessed as tumor growth inhibition at 100 mg/kg, po qd after 14 days; format: functional, organism-based
HCT-116 [4] = assay: Antitumor activity against human HCT116 cells xenografted subcutaneously in mouse assessed as tumor growth inhibition at 30 mg/kg, po qd after 14 days; format: functional
Homo sapiens = organism: Homo sapiens; assay: Inhibition of Aurora kinase (unknown origin) assessed as reduction in histone H3 phosphorylation at Ser10 residue
Sus scrofa = organism: Sus scrofa; assay: Inhibition of pig brain tubulin polymerization at 10 uM in presence of GTP relative to control

Chain of Tyrosine-protein kinase Yes (Homo sapiens), P07947 (P07947 whole entry): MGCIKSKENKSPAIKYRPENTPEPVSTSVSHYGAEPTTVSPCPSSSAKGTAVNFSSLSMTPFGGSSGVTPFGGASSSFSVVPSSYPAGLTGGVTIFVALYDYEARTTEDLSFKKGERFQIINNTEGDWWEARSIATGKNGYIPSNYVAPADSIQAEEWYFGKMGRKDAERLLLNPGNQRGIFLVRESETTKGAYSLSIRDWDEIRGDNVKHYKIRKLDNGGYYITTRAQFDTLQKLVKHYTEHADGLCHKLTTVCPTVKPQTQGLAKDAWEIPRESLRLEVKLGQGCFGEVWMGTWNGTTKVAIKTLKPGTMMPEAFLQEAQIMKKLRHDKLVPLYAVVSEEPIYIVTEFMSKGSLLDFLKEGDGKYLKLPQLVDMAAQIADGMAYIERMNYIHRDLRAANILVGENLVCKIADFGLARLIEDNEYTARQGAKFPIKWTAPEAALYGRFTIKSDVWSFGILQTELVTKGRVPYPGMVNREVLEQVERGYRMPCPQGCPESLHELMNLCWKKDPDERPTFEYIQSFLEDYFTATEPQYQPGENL

Molecule: Proto-oncogene tyrosine-protein kinase Src (Homo sapiens) (from UniProt P12931)
Km [1]: 200 µM

Molecule: Tyrosine-protein kinase Yes (Homo sapiens), P07947
Km [2]: 45 µM

Molecule: Cc1cc(Nc2cc(N3CCN(C)CC3)nc(Sc3ccc(NC(=O)C4CC4)cc3)n2)n[nH]1
TGI (HCT-116 [3]): 68%
TGI (HCT-116 [4]): 60%

inhibition (Homo sapiens): Active
inhibition (Sus scrofa): 63%
Molecule: Cc1ccc(OCCNc2nc(Nc3cc(C)[nH]n3)cc(C)c2C#N)cn1
